Data as given in patent US6627634B2, “Bicyclic heterocycles, pharmaceutical compositions containing them, their use, and processes for preparing them” (Boehringer Ingelheim Pharma KG, priority 2000, dated 2003).

Experiments:
[1] = biological target: T1, human EGF-R (Homo sapiens, UniProt P00533); assay: Inhibition of EGF-dependent proliferation of F/L-HERc cells; type: cell-based; settings: F/L-HERc cells (murine IL-3-dependent line expressing human EGF-R), stimulated with EGF 20 ng/ml, 48 hours, Cell Titer 96 AQueous assay
T1 construct: expressed in transfected cells; host or cells: F/L-HERc cells (murine IL-3-dependent FDC-P1 line transduced with retroviral vector LXSN carrying human EGF-R cDNA; packaging line GP+E86)
T1 sequence (P00533 25-1210): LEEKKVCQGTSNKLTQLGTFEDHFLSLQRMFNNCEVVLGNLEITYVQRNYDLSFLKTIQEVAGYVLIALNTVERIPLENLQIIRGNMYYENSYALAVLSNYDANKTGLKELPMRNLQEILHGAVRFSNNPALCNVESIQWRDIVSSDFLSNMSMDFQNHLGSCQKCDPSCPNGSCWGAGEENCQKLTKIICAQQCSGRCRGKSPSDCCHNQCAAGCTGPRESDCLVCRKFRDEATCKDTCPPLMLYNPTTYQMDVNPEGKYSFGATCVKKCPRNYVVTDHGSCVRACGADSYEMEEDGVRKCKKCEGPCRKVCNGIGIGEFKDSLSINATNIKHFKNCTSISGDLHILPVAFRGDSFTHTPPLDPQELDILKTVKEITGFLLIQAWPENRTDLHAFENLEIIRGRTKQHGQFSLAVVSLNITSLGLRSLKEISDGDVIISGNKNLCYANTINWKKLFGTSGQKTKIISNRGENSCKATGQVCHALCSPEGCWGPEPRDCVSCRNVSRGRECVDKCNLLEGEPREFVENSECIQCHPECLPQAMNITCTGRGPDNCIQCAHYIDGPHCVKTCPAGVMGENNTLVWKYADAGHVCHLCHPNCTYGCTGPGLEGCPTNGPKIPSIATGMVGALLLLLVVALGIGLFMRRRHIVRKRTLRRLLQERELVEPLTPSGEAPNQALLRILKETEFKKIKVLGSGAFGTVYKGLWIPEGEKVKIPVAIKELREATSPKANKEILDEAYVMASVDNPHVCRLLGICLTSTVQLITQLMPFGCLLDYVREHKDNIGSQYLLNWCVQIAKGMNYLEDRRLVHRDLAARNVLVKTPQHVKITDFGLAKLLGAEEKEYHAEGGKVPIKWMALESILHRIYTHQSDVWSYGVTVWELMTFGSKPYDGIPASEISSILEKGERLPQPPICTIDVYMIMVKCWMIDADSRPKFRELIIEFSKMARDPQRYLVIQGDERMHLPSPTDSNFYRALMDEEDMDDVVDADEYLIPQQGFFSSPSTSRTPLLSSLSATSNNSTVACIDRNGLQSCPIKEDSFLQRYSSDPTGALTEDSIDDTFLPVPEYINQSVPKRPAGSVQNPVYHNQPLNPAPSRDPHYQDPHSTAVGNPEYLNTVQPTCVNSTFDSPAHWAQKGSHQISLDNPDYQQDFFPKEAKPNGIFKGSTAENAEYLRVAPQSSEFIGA
Source text: A cell line of murine origin dependent on interleukin-3-(IL-3) which was genetically modified to express functional human EGF-R was used here. The proliferation of these cells known as F/L-HERc can therefore be stimulated either by murine IL-3 or by EGF (cf. T. von Rüiden et al. in EMBO J. 7, 2749-2756 (1988) and J. H. Pierce et al. in Science 239, 628-631 (1988)).
The starting material used for the F/L-HERc cells was the cell line FDC-P1, the production of which has been described by T. M. Dexter et al., J. Exp. Med. 152 1036-1047 (1980). Alternatively, however, other growth-factor-dependent cells may also be used (cf., e.g., J. H. Pierce et al., Science 239, 628-631 (1988); H. Shibuya et al., Cell 70, 57-67 (1992); and W. S. Alexander et al., EMBO J. 10, 3683-3691 (1991)). For expressing the human EGF-R cDNA (cf. A. Ullrich et al., Nature 309, 418-425 (1984)) recombinant retroviruses were used as described by T. von Rüiden et al., EMBO J. 7, 2749-2756 (1988), except that the retroviral vector LXSN (cf. A. D. Miller et al., BioTechniques 7, 980-990 (1989)) was used for the expression of the EGF-R cDNA and the line GP+E86 (cf. D. Markowitz et al., J. Virol. 62, 1120-1124 (1988)) was used as the packaging cell.
F/L-HERc cells were cultivated in RPMI/1640 medium (BioWhittaker), supplemented with 10% fetal calf serum (FCS, Boehringer Mannheim), 2 mM glutamine (BioWhittaker), standard antibiotics and 20 ng/ml of human EGF (Promega), at 37° C. and 5% CO2. In order to investigate the inhibitory activity of the compounds according to the invention, 1.5×10^4 cells per well were cultivated in triplicate in 96-well dishes in the above medium (200 μl), the cell proliferation being stimulated with either EGF (20 ng/ml) or murine IL-3. The IL-3 used was obtained from culture supernatants of the cell line X63/0 mIL-3 (cf. H. Karasuyama et al., Eur. J. Immunol. 18, 97-104 (1988)). The compounds according to the invention were dissolved in 100% dimethylsulfoxide (DMSO) and added to the cultures in various dilutions, the maximum DMSO concentration being 1%. The cultures were incubated for 48 hours at 37° C.
In order to determine the inhibitory activity of the compounds according to the invention the relative cell number was measured in O.D. units using the Cell Titer 96™ AQueous Non-Radioactive Cell Proliferation Assay (Promega). The relative cell number was calculated as a percentage of the control (F/LHERc cells without inhibitor) and the concentration of active substance which inhibits the proliferation of the cells by 50% (IC50) was derived therefrom.

| SMILES | IC50 [1] [nM] | melting point [°C] |
| --- | --- | --- |
| O=C(C=CCN1CCN2CC(=O)OCC2C1)Nc1cc2c(Nc3ccc(F)c(Cl)c3)ncnc2cc1OCC1CC1 (stereo not drawn) [4(3), 4-[(3-chloro-4-fluorophenyl)amino]-6-{[4-(3-oxoperhydropyrazino[2,1-c][1,4]oxazin-8-yl)-1-oxo-2-buten-1-yl]amino}-7-cyclopropylmethoxyquinazoline] | 10 |  |
| O=C(C=CCN1CCN(C2CCOC2=O)CC1)Nc1cc2c(Nc3ccc(F)c(Cl)c3)ncnc2cc1OCC1CC1 (stereo not drawn) [Example 1, 4-[(3-chloro-4-fluorophenyl)amino]-6-({4-[4-(2-oxotetrahydrofuran-3-yl)piperazin-1yl]-1-oxo-2-buten-1-yl}amino)-7-cyclopropylmethoxyquinazoline] | 0.05 | 130 to 131 |
| O=C(C=CCN1CCN(C2COC(=O)C2)CC1)Nc1cc2c(Nc3ccc(F)c(Cl)c3)ncnc2cc1OCC1CC1 (stereo not drawn) [Example 2, 4-[(3-chloro-4-fluorophenyl)amino]-6-({4-[4-(2-oxotetrahydrofuran-4-yl)piperazin-1-yl]-1-oxo-2-buten-1-yl}amino)-7-cyclopropylmethoxyquinazoline] | 0.6 |  |
| O=C(C=CCN1CCN(C(=O)[C@@H]2CCC(=O)O2)CC1)Nc1cc2c(Nc3ccc(F)c(Cl)c3)ncnc2cc1OCC1CC1 [Example 3, (S)-4-[(3-chloro-4-fluorophenyl)amino]-6-[(4-{4-[(5-oxotetrahydrofuran-2-yl)carbonyl]piperazin-1-yl}-1-oxo-2-buten-1-yl)amino]-7-cyclopropylmethoxyquinazoline] |  | 155 to 157 |
| O=C(C=CCN1CCN(CCSC2CCOC2=O)CC1)Nc1cc2c(Nc3ccc(F)c(Cl)c3)ncnc2cc1OCC1CC1 (stereo not drawn) [Example 4, 4-[(3-chloro-4-fluorophenyl)amino]-6-{[4-(4-{2-[(2-oxotetrahydrofuran-3-yl)sulfanyl]ethyl}piperazin-1-yl)-1-oxo-2-buten-1-yl]amino}-7-cyclopropylmethoxyquinazoline] | 3 |  |
